In US4533667A, “Imidazolidinedione derivatives” (Pfizer Inc., priority 1984, dated 1985):

Legend:
[1] = biological target: T1, aldose reductase (Bos taurus, UniProt P16116); assay: inhibition of aldose reductase enzyme activity (partially purified enzyme from calf lens); assay type: biochemical; conditions: for inhibition at 1 µM: 10^-6 M, partially purified aldose reductase from calf lens; for aldose reductase inhibitory activity (in words): qualitative statement, no concentration given
T1 construct: partially purified aldose reductase enzyme obtained from calf lens; from tissue; host or cells: calf lens
Protocol: (§1) The activity of the compounds of the present invention, as agents for the control of chronic diabetic complications, is determined by their ability to successfully pass one or more of the following standard biological or pharmacological tests, viz., (1) measuring their ability to inhibit the enzyme activity of isolated aldose reductase; (2) measuring their ability to reduce or inhibit sorbitol accumulation in the sciatic nerve of acutely streptozotocinized (i.e., diabetic) rats; (3) measuring their ability to reverse already-elevated sorbitol levels in the sciatic nerve and lens of chronic streptozotocin-induced diabetic rats; (4) measuring their ability to prevent or inhibit galactitol formation in the lens of acutely galactosemic rats, and (5) measuring their ability to delay cataract formation and reduce the severity of lens opacities in chronic galactosemic rats.
The following spiro-oxindole imidazolidinedione final products of Examples 1-5, respectively, were tested at a concentration level of 10^-6 M for their ability to reduce or inhibit aldose reductase enzyme activity via the procedure of S. Hayman et al., as described in the Journal of Biological Chemistry, Vol. 240, p. 877 (1965) and as modified by K. Sestanj et al. in U.S. Pat. No. 3,821,383. In every case, the substrate employed was partially purified aldose reductase enzyme obtained from calf lens.

[2] = tested on: sorbitol levels in diabetic rats; assay: inhibition of the formation of sorbitol levels in diabetic rats, oral; assay type: in vivo, rat; conditions: dose levels ranging from 0.5 mg/kg to 20 mg/kg
Text: As previously indicated, the spiro-oxindole imidazolidinedione compounds of this invention are readily adapted to therapeutic use as aldose reductase inhibitors for the control of chronic diabetic complications, in view of their ability to reduce lens sorbitol levels in diabetic subjects to a statistically significant degree. […] Furthermore, the herein described compounds of this invention can be administered by either the oral or parenteral routes of administration. […]
as §1

Structure (SMILES)	inhibition at 1 µM [1] [%]	aldose reductase inhibitory activity (in words) [1]	inhibition of the formation of sorbitol levels in diabetic rats (in words) [2]
Nc1ccc2c(c1)NC(=O)C21NC(=O)NC1=O (centres unmarked) [Example 4, 6'-amino-spiro-[imidazolidine-4,3'-indoline]-2,2',5-trione]	27	highly potent	–
O=C1NC(=O)C2(N1)C(=O)Nc1cnccc12 (centres unmarked) [Example 5, spiro-[imidazolidine-4,3'-(6-azaindoline)]-2,2',5-trione]	49	highly potent	–

The next lines start with results.

inhibition at 1 µM [1] [%]	aldose reductase inhibitory activity (in words) [1]	Structure (SMILES)	inhibition of the formation of sorbitol levels in diabetic rats (in words) [2]
72	highly potent	Nc1cc(Cl)cc2c1NC(=O)C21NC(=O)NC1=O (centres unmarked) [Example 1, 5'-chloro-7'-amino-spiro-[imidazolidine-4,3'-indolidine]-2,2',5-trione]	–
81	highly potent	O=C1NC(=O)C2(N1)C(=O)N(Cc1cccnc1)c1c(Cl)cc(Cl)cc12 (centres unmarked) [Example 2, 1'-(3-pyridymethyl)-5',7'-dichloro-spiro-[imidazolidine-4,3'-indoline]-2,2',5-trione]	significantly high degree
71	highly potent	O=C1NC(=O)C2(N1)C(=O)N(Cc1cccnc1)c1ccc(F)cc12 (centres unmarked) [Example 3, 1'-(3-pyridylmethyl)-5'-fluorospiro-[imidazolidine-4,3'-indoline]-2,2',5-trione]	–
